According to patent publication US10597388B2, “Pyridazinone herbicides” (FMC CORPORATION, priority 2014, dated 2020):

How the values were obtained:
Type in all cases: in vivo
[1] = test system: corn (Zea mays); experiment: Test A greenhouse herbicide test, pre- and postemergence; settings: Postemergence; for Corn plant response rating: 0 to 100 scale, 0 is no effect, 100 is complete control
Procedure, shortened: (§1)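 Seeds sown in loam–sand blend got a preemergence directed soil spray of compound in non-phytotoxic solvent with surfactant. Postemergence treatment was given at 2–10 cm, one- to two-leaf stage. After ~10 d in greenhouse, injury was rated visually vs untreated controls, 0 (no effect) to 100 (complete control).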

[2] = test system: foxtail, giant (giant foxtail, Setaria faberii); experiment: as above
Procedure, shortened: as §1

[3] = test system: pigweed (Amaranthus retroflexus); experiment: as above
Procedure, shortened: as §1

[4] = test system: ragweed (common ragweed, Ambrosia elatior); experiment: as above
Procedure, shortened: as §1

[5] = test system: ryegrass, Italian (Italian ryegrass, Lolium multiflorum); experiment: as above
Procedure, shortened: as §1

[6] = test system: wheat (Triticum aestivum); experiment: as above; settings: Postemergence; for Wheat plant response rating: 0 to 100 scale, 0 is no effect, 100 is complete control
Procedure, shortened: as §1

[7] = test system: barnyardgrass (Echinochloa crus-galli); experiment: Test B flooded paddy test; settings: 250 g ai/ha, Flood; visual rating on scale of 0 to 100 where 0 is no effect and 100 is complete control; 13 to 15 d after treatment
Procedure, shortened: (§2)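 Plants at the 2-leaf stage were flooded to 3 cm above soil, and test compounds were applied directly into the paddy water, which was held at that depth throughout. After 13 to 15 d in a greenhouse, injury was rated visually against untreated controls on a 0–100 scale (0 no effect, 100 complete control).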

[8] = test system: ducksalad (Heteranthera limosa); experiment: Test B flooded paddy test; settings: 250 g ai/ha, Flood; visual rating on scale of 0 to 100 where 0 is no effect and 100 is complete control; 13 to 15 d after treatment
Procedure, shortened: as §2

[9] = test system: rice (Oryza sativa); experiment: Test B flooded paddy test; settings: 250 g ai/ha, Flood; visual rating on scale of 0 to 100 where 0 is no effect and 100 is complete control; 13 to 15 d after treatment
Procedure, shortened: as §2

[10] = test system: sedge, umbrella (small-flower umbrella sedge, Cyperus difformis); experiment: Test B flooded paddy test; settings: 250 g ai/ha, Flood; visual rating on scale of 0 to 100 where 0 is no effect and 100 is complete control; 13 to 15 d after treatment
Procedure, shortened: as §2

[11] = 125 g ai/ha, 0 to 100 scale where 0 is no effect and 100 is complete control
[12] = 500 g ai/ha, visual rating after approx. 10 d, 0 to 100 scale (0 no effect, 100 complete control)
[13] = Postemergence, 125 g ai/ha, 0 to 100 scale where 0 is no effect and 100 is complete control
[14] = Postemergence, 500 g ai/ha, visual rating after approx. 10 d, 0 to 100 scale (0 no effect, 100 complete control)
[15] = Preemergence, 125 g ai/ha, 0 to 100 scale where 0 is no effect and 100 is complete control
[16] = Preemergence, 500 g ai/ha, 0 to 100 scale where 0 is no effect and 100 is complete control
[17] = Postemergence, 500 g ai/ha, 0 to 100 scale, 0 is no effect, 100 is complete control
[18] = Preemergence, 500 g ai/ha, 0 to 100 scale, 0 no effect, 100 complete control

| SMILES | Plant response rating, Corn [1, 11] | Plant response rating, Corn [1, 12] | Plant response rating, Foxtail, Giant [2, 13] | Plant response rating, Foxtail, Giant [2, 14] | Foxtail, Giant plant response rating [2, 15] | Plant response rating, Foxtail, Giant [2, 16] | Plant response rating, Pigweed [3, 13] | Plant response rating, Pigweed [3, 14] | Pigweed plant response rating [3, 15] | Plant response rating, Pigweed [3, 16] | Plant response rating, Ragweed [4, 13] | Plant response rating, Ragweed [4, 14] | Ragweed plant response rating [4, 15] | Plant response rating, Ryegrass, Italian [5, 13] | Ryegrass, Italian plant response rating [5, 15] | Plant response rating, Wheat [6, 11] | Plant response rating, Barnyardgrass [7] | Plant response rating, Ducksalad [8] | Plant response rating, Rice [9] | Plant response rating, Sedge, Umbrella [10] | other results |
| --- | --- | --- | --- | --- | --- | --- | --- | --- | --- | --- | --- | --- | --- | --- | --- | --- | --- | --- | --- | --- | --- |
| Cc1nn(C)c(=O)c(-c2c(C)sc3ccc(C(F)(F)F)cc23)c1O [Compound 121] | 20 | 20 | 60 | 80 | 80 | 80 | 90 | 90 | 100 | 100 | 90 | 90 | 60 | 90 | 80 | 0 | 0 | 0 | 0 | 0 | Plant response rating, Ragweed [4, 16]: 80; Plant response rating, Ryegrass, Italian [5, 14]: 100; Plant response rating, Ryegrass, Italian [5, 16]: 90; Plant response rating, Wheat [6, 12]: 20 |
| Cc1nn(C)c(=O)c(-c2cccc3ccc(Br)cc23)c1O [Compound 126] | 0 | 20 | 20 | 60 | 10 | 70 | 90 | 100 | 100 | 100 | 90 | 90 | 70 | 90 | 90 | 0 | 0 | 30 | 0 | 0 | Plant response rating, Ragweed [4, 16]: 80; Plant response rating, Ryegrass, Italian [5, 14]: 100; Plant response rating, Ryegrass, Italian [5, 16]: 100; Plant response rating, Wheat [6, 12]: 20 |
| CC(=O)Oc1c(Cl)nn(C)c(=O)c1-c1c(C)sc2ccc(Cl)cc12 [Compound 116] | 0 | 30 | 70 | 100 | 80 | 100 | 70 | 100 | 90 | 90 | 70 | 100 | 90 | 90 | 80 | 20 | 0 | 50 | 0 | 70 | Plant response rating, Ragweed [4, 16]: 90; Plant response rating, Ryegrass, Italian [5, 14]: 100; Plant response rating, Ryegrass, Italian [5, 16]: 100; Plant response rating, Wheat [6, 12]: 50 |
| Cc1ccc2sc(C)c(-c3c(OC(=O)OC(C)C)c(C)nn(C)c3=O)c2c1 [Compound 66] | 0 | – | 70 | – | 60 | – | 80 | – | 100 | – | 70 | – | 80 | 90 | 90 | 0 | 0 | 0 | 0 | 0 | Corn plant response rating ([1]; 500 g ai/ha): 0; Foxtail, Giant plant response rating [2, 17]: 90; Plant response rating, Foxtail, Giant [2, 18]: 90; Pigweed plant response rating [3, 17]: 90; Plant response rating, Pigweed [3, 18]: 100; Ragweed plant response rating [4, 17]: 90; Plant response rating, Ragweed [4, 18]: 90; Ryegrass, Italian plant response rating [5, 17]: 100; Plant response rating, Ryegrass, Italian [5, 18]: 100; Wheat plant response rating ([6]; 500 g ai/ha): 0 |
| Cc1nn(C)c(=O)c(-c2ccc(F)c3ccccc23)c1O [Compound 41] | 20 | – | 70 | – | 70 | – | 60 | – | 100 | – | 70 | – | 80 | 100 | 100 | 0 | 30 | 40 | 0 | 40 | Corn plant response rating ([1]; 500 g ai/ha): 70; Foxtail, Giant plant response rating [2, 17]: 100; Plant response rating, Foxtail, Giant [2, 18]: 90; Pigweed plant response rating [3, 17]: 90; Plant response rating, Pigweed [3, 18]: 100; Ragweed plant response rating [4, 17]: 100; Plant response rating, Ragweed [4, 18]: 90; Ryegrass, Italian plant response rating [5, 17]: 100; Plant response rating, Ryegrass, Italian [5, 18]: 100; Wheat plant response rating ([6]; 500 g ai/ha): 80 |
| CCC(=O)Oc1c(C)nn(C)c(=O)c1-c1ccc(Br)c2ccccc12 [Compound 134] | 20 | 50 | 20 | 80 | 50 | 90 | 90 | 100 | 100 | 100 | 100 | 100 | 80 | 100 | 100 | 30 | 0 | 0 | 0 | 0 | Plant response rating, Ragweed [4, 16]: 90; Plant response rating, Ryegrass, Italian [5, 14]: 100; Plant response rating, Ryegrass, Italian [5, 16]: 100; Plant response rating, Wheat [6, 12]: 30 |
